Where two headings read alike, the source gives them in different places. Marks after values point to notes of the source that are not given here.

The values that follow come from publication PMC12192727, “Strategies to Develop Na,K-ATPase-α4 Inhibitors as Male Contraceptives” (International Journal of Molecular Sciences, 2025).

The nature of data set [1]: Stability in PBS (pH 7.4). It is filed as physicochemical. The settings on record: PBS pH 7.4, compound remaining after 60 min. Here is the method:
Solubility, permeability, compound stability, metabolic stability, and toxicity studies were performed at Pharmaron (Waltham, MA, USA).

Data set [2] is described as follows: Caco-2 cell permeability. It is filed as in vitro ADME, human. The settings on record: human. The method, then:
(§1) The in vitro permeability and potential to be transported by P-gp (P-glycoprotein) were determined in a Caco-2 or MDCK cell line. Values are reported for a mass recovery > 60%. The efflux ratio was determined as follows: P^app(B-A)/Papp(A-B). The experimental details are reported in the Supporting Information (Tables S2–S5).
(§2) The recovery can be determined using the following equation:
(§3) Recovery%=(VA×[drug]acceptor+VD×[drug]donor)/(VD×[drug]initial, donor)
(§4) Where VA is the volume (in mL) in the acceptor well (0.235 mL for Ap→Bl flux, and 0.075 mL for
(§5) Bl→Ap), VD is the volume (in mL) in the donor well (0.075 mL for Ap→Bl flux, and 0.235 mL for
(§6) The leakage of Lucifer Yellow, in unit of percentage (%), can be calculated using the following
(§7) %LY leakage = 100×[LY]acceptor×0.3/([LY]donor×0.1+[LY]acceptor×0.3)
(§8) LY leakage of <1% is acceptable to indicate the well-qualified MDCK/ Caco-2 monolayer.
(§9) Table S5 . The Assessment of Caco-2 Cell Monolayer Integrity
(§10) The apparent permeability coefficient (Papp), Efflux ratio (ER), recovery percentage, and LY leakage percentage can be
(§11) calculated for Caco-2 Cell drug transport assays using the above equations. […]

In data set [3] the test system is Caco-2 cells. The data set can be described thus: Caco-2 cell permeability. The data set is classed as in vitro ADME, human. The settings on record: Caco-2 cell line. The method, then: as §1, §2, §3, §4, §5, §6, §7, §8, §9, §10, §11
Background: Caco-2 monolayers are a common model of the intestinal barrier.

The nature of data set [4]: in vitro. The following applies: dog, MDCK, MDCK cells.

The term Papp A→B denotes the apparent permeability from the apical to the basolateral side of a cell layer. In general, Papp B→A refers to how fast a substance crosses the layer from the basolateral side. Usually efflux ratio stands for the permeability from basolateral to apical divided by that in the opposite direction, in the common usage. `CC12CCC(=O)C=C1CCCC2n1cc(-c2ccccc2)nn1` (stereo not shown) [Compound 45, 4a-Methyl-5-(4-phenyl-1H-1,2,3-triazol-1-yl)-4,4a,5,6,7,8-hexahydronaphthalen-2(3H)-one]: the Stability entry in data set [1] is “Stability: 96% ^a”. Moreover, the Papp A→B turned out to be 240 nm/s in data set [2] (Caco-2, Caco-2 cell line, read-out: Permeability Papp (A-B)) and 240 nm/s in data set [2] (Caco-2, Caco-2 cells, read-out: Papp (A-B)). Besides, the recovery in data set [2] (Caco-2, Caco-2 cells, read-out: Recovery (%) AP-BL) came to 64.3%; in data set [2] (Caco-2, Caco-2 cells, read-out: Recovery (%) BL-AP), 77.9%. In data set [2] (Caco-2 cells), this compound yielded a basolateral-to-apical permeability (Papp B→A) of 118 nm/s. For the same compound, in data set [2] (Caco-2 cells, Papp(B-A)/Papp(A-B)), the efflux ratio stood at 0.49. The “Permeability Papp (A-B)” value in data set [3] is “good”.
Take `C[C@]12CC[C@H]3[C@@H](CC=C4C[C@@H](O)CC[C@@]43C)[C@@H]1CC[C@@H]2c1cn(Cc2ccccc2)nn1` [Compound 13, (3S,8S,9S,10R,13S,14S,17S)-17-(1-Benzyl-1H-1,2,3-triazol-4-yl)-10,13-dimethyl-2,3,4,7,8,9,10,11,12,13,14,15,16,17-tetradecahydro-1H-cyclopenta[a]phenanthren-3-ol]: the recovery in data set [4] (Recovery (%) AP-BL) turned out to be 70.2%; in data set [4] (Recovery (%) BL-AP), 88.1%.
